The text below walks through data of patent US11919874B2, “Bisphenol derivatives and their use as androgen receptor activity modulators” (The University of British Columbia, priority 2016, dated 2024).

One data set deals with T1, androgen receptor (Homo sapiens, UniProt P10275, T878A).
T1 construct: endogenous in cells; host or cells: LNCaP
T1 sequence (P10275 1-920 T878A): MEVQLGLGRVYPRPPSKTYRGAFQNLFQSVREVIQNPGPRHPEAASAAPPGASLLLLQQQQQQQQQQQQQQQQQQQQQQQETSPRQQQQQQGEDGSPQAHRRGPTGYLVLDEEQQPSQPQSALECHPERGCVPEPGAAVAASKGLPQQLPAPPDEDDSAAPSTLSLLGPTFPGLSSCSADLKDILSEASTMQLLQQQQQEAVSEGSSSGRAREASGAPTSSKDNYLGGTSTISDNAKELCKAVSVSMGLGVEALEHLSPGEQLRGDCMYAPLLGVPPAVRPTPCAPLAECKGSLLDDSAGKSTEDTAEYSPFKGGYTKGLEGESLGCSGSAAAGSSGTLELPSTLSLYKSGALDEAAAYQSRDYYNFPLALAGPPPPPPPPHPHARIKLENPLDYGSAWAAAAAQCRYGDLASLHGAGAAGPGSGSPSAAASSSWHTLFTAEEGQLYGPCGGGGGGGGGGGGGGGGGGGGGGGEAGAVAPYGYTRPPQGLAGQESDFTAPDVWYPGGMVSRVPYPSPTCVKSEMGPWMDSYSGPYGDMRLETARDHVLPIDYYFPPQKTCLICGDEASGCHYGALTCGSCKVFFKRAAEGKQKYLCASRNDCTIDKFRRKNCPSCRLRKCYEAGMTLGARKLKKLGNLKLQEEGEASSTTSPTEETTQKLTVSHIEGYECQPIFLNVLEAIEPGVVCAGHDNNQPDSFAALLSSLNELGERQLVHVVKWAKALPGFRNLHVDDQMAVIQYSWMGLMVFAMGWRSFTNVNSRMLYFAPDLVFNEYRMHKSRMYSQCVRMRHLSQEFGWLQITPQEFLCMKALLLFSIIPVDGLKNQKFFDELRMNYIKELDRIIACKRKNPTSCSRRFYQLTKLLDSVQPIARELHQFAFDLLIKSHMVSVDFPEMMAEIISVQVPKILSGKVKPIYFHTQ
Kind of data set: PSA (6.1 kb)-luciferase reporter assay in LNCaP cells induced with R1881. It is filed as cell-based. To be noted: R1881 1 nM, 48 h, mean with standard error. On the procedure: LNCaP cells (3×10^4) were seeded into 24-well plates overnight. […] Luciferase activities were measured and normalized to protein concentration determined by the Bradford assay. IC50 calculations were done using OriginPro 8.1 Software (Northampton, MA, USA). Transfection experiments to determine IC50 values were performed in at least 4 independent experiments (“trials”) using triplicate wells.
(In general: A reporter such as luciferase makes a cellular process visible.)

Another data set concerns LNCaP xenografts. Kind of data set: LNCaP xenograft model in castrated NOD-SCID mice, tumor volume. The format is in vivo. On the procedure:
LNCaP Cell Preparation: LNCaP cells were passaged prior to seeding in T175flasks at a concentration of ˜2-3×10^7/mL. The cells were grown for 7 days until 90% confluent. Cell preparations were then prepared in RPMI with 5% FBS/Matrigel (50/50, v/v) yielding a final concentration of 1×10^8/mL.
Tumor Induction and Treatment: Six to eight week old NOD-SCID mice were received from BC Cancer Research Centre's Animal Resource Centre and acclimated for 28 days. Tumors were initiated with […]. Tumors were allowed to grow to an average size of approximately 100 mm^3. Mice were then castrated and the tumors allowed to adapt for a period of one week before first dose was administered. Tumor volume was measured as length×width×height in mm multiplied by 0.5236.
Compound Preparation and Treatment: Compound 1a was dissolved in 100% DMSO (ATCC Lot 61908420) to yield a stock solution of 157 mg/mL. Compound 1a was administered as an oral gavage once per day at dose levels of 10 and 30 mg/kg. Vehicle control animals were administered 1% CMC formulation as an oral gavage once daily. […]
Oral treatment was initiated one week after castration. […] Two days after the last dose, the tumours were measured and harvested. Body weight was assessed daily throughout the treatment period. Tumor volume was measured on day −7 (castration day), and again on days 1, 4, 8, 12, 16, 20, 24 and 26.

Data set [1] can be described thus: Body weight in LNCaP xenograft model. The format is in vivo, mice. Conditions: daily oral 10 or 30 mg/kg, start vs day 26, vs CMC control. Here is the method:
Compound Preparation and Treatment: Compound 1a was dissolved in 100% DMSO (ATCC Lot 61908420) to yield a stock solution of 157 mg/mL. Compound 1a was administered as an oral gavage once per day at dose levels of 10 and 30 mg/kg. Vehicle control animals were administered 1% CMC formulation as an oral gavage once daily. CMC (n=17 tumours); 10 mg/kg (n=15 tumours); 30 mg/kg (n=14 tumours). CMC (n=9 animals); 10 mg/kg (n=9 animals); 30 mg/kg (n=9 animals).
Oral treatment was initiated one week after castration. The start of treatment was designated “Day 1” and animals were treated once daily for a total of 24 doses. Two days after the last dose, the tumours were measured and harvested. Body weight was assessed daily throughout the treatment period. Tumor volume was measured on day −7 (castration day), and again on days 1, 4, 8, 12, 16, 20, 24 and 26.

The subject of the next data set is PSA mRNA. Kind of data set: PSA mRNA in LNCaP xenografts by QPCR. The format is in vivo, mice. An excerpt:
Quantitative Real-Time Polymerase Chain Reaction (QPCR) Method: LNCaP xenografts were homogenized using TRIzol® reagent (Invitrogen™), and total RNA was extracted using PureLink RNA Mini Kit (Life Technologies). Amplification Grade DNase I treatment (Sigma-Aldrich) was applied to the RNA before RT-PCR using High Capacity RNA-to-DNA kit (Life Technologies) to generate cDNA. cDNA and gene-specific primers were combined with Platinum® SYBR® Green qPCRSuperMix-UDG with ROX (Invitrogen™). Transcripts were measured by quantitative real-time PCR (QPCR) using ABI PRISM 7900 Sequence Detection System (ABI PRISM®, Applied Biosystems by Life Technologies) in triplicates for each biological sample. Gene expression levels were normalized to housekeeping gene RPL13A. Primers for PSA have been previously described (Andersen R. J., et al. Cancer Cell. 2010; Myung J. K., et al. J. Clin. Invest. 2013).
In FIG. 6, bars represent mean±SEM with n=5 representative tumors from each treatment group. One-way ANOVA post-hoc Tukey's multiple comparisons test was performed for statistical analysis. *p<0.05; **p<0.01; ***p<0.001.

What is called IC50 is the midpoint of a concentration-inhibition curve. Low values mean higher potency, high ones lower potency. Consider `CC(C)(c1ccc(OC[C@H](O)CO)cc1)c1ccc(OC[C@H](O)CCl)c(Cl)c1` [C, reference compound], for which, at androgen receptor, the IC50 turned out to be 2.47 ± 0.26 µM. On to `CC(C)(c1ccc(OC[C@H](O)CNS(C)(=O)=O)cc1)c1cc(Cl)c(OC[C@H](O)CCl)c(Cl)c1` [Compound 13a, N-((R)-3-(4-(2-(3,5-dichloro-4-((S)-3-chloro-2-hydroxypropoxy)phenyl)propan-2-yl)phenoxy)-2-hydroxypropyl)methanesulfonamide], for which, at androgen receptor, the IC50 is 1 ± 0.16 µM. This IC50 is about 2.5-fold lower than that of the compound before.

`CC(C)(c1ccc(OC[C@H](O)Cn2ccnc2)cc1)c1cc(Cl)c(OC[C@H](O)CCl)c(Cl)c1` [Compound 9a, (S)-1-chloro-3-(2,6-dichloro-4-(2-(4-((R)-2-hydroxy-3-(1H-imidazol-1-yl)propoxy)phenyl)propan-2-yl)phenoxy)propan-2-ol] had an IC50 against androgen receptor of 3.12 ± 0.68 µM. For the compound `CC(C)(c1ccc(OC[C@H](O)CN)cc1)c1cc(Cl)c(OC[C@H](O)CCl)c(Cl)c1` [Compound 12a, (R)-1-amino-3-(4-(2-(3,5-dichloro-4-((S)-3-chloro-2-hydroxypropoxy)phenyl)propan-2-yl)phenoxy)propan-2-ol], inhibition on androgen receptor was half-maximal at 2.26 ± 0.24 µM (IC50). Still for that read-out and setting: the figure for `CC(C)(c1ccc(OC[C@H](O)CN2CCOCC2)cc1)c1cc(Cl)c(OC[C@H](O)CCl)c(Cl)c1` [Compound 11a, (S)-1-chloro-3-(2,6-dichloro-4-(2-(4-((R)-2-hydroxy-3-morpholinopropoxy)phenyl)propan-2-yl)phenoxy)propan-2-ol] is 1.05 ± 0.15 µM; for `CCS(=O)(=O)C[C@@H](O)COc1ccc(C(C)(C)c2cc(Cl)c(OC[C@H](O)CCl)c(Cl)c2)cc1` [Compound 14a, (S)-1-chloro-3-(2,6-dichloro-4-(2-(4-((S)-3-(ethylsulfonyl)-2-hydroxypropoxy)phenyl)propan-2-yl)phenoxy)propan-2-ol] it is 0.95 ± 0.21 µM. Same read-out and setting: the figure for `COC[C@@H](O)COc1ccc(C(C)(C)c2cc(Cl)c(OC[C@H](O)CCl)c(Cl)c2)cc1` [Compound 5a, (S)-1-chloro-3-(2,6-dichloro-4-(2-(4-((R)-2-hydroxy-3-methoxypropoxy)phenyl)propan-2-yl)phenoxy)propan-2-ol] is 1.03 ± 0.39 µM. Regarding `CC(C)(c1ccc(OC[C@H](O)CO)cc1)c1cc(Cl)c(OC[C@H](O)CCl)c(Cl)c1` [Compound 1a, (R)-3-(4-(2-(3,5-dichloro-4-((S)-3-chloro-2-hydroxypropoxy)phenyl)propan-2-yl)phenoxy)propane-1,2-diol], the IC50 against androgen receptor amounted to 1.41 ± 0.27 µM. The “tumor growth / tumor volume at the end of the treatment period” value in the data set with LNCaP xenografts (daily oral 10 mg/kg or 30 mg/kg, castrated NOD-SCID mice, day 26, vs CMC control) was “inhibition of tumor growth and significant reduction of tumor volume”. Besides, the “difference in tumor volumes between the 10 mg/kg and 30 mg/kg doses” value in the data set on LNCaP xenografts (daily oral, 10 mg/kg vs 30 mg/kg) is given as “no statistical difference in the tumor volumes”. Moreover, the “start and finish body weights” value in data set [1] was “no significant differences between the start and finish body weights”. For the same compound, the “mRNA expression of PSA in tumors” value in the data set on PSA mRNA (30 mg/kg oral daily, compared to the 10 mg/kg dose and control treatment) is on record as “significant reduction of PSA expression”; in the data set on PSA mRNA (10 and 30 mg/kg oral daily, QPCR normalized to RPL13A, n=5 tumors), “dose-dependent inhibition of the mRNA expression of PSA”. As for `CC(=O)OC[C@H](COc1ccc(C(C)(C)c2ccc(OC[C@@H](CCl)OC(C)=O)cc2)cc1)OC(C)=O` [B, reference compound], the IC50 against androgen receptor came to 10.7 ± 1.04 µM.
